Assay results published in article PMC7808659, “Lotus japonicus karrikin receptors display divergent ligand-binding specificities and organ-dependent redundancy” (PLoS Genetics, 2020).

Experiments:
LjKAI2b [1] = molecular target: LjKAI2b (Lotus japonicus, UniProt I3S3D1, W158F); assay: differential scanning fluorimetry; intrinsic tryptophan fluorescence; type: binding; details: SYPRO Tangerine; response like wild-type LjKAI2a
LjKAI2b [2] = molecular target: LjKAI2b (Lotus japonicus, UniProt I3S3D1, W158F/M161L/L191S); assay: as above; type: binding; details: SYPRO Tangerine; shift from 25 uM
Description: differential scanning fluorimetry; intrinsic tryptophan fluorescence on LjKAI2b | LjKAI2b^[…],[…],F158 gained a strong response to GR24^ent-5DS

Sequence of LjKAI2b (Lotus japonicus, UniProt I3S3D1, W158F/M161L/L191S) (I3S3D1 entry or part of it W158F/M161L/L191S): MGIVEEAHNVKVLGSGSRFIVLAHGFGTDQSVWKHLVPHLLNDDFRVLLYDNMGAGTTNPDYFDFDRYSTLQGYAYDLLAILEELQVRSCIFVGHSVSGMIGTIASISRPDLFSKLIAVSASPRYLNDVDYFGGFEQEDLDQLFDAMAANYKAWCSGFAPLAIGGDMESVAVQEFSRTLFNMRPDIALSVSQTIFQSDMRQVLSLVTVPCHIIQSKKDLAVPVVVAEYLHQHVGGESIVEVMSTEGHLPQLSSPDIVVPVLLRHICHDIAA
Sequence of LjKAI2b (Lotus japonicus, UniProt I3S3D1, W158F) (I3S3D1 entry or part of it W158F): as the sequence (I3S3D1 entry or part of it W158F/M161L/L191S) above, with L161M, S191L counted along it

## CC1=C[C@@H](O/C=C2/C(=O)O[C@H]3c4ccccc4C[C@@H]23)OC1=O (racemic) [GR24^ent-5DS]
LjKAI2b [1]
  differential scanning fluorimetry; intrinsic tryptophan fluorescence: LjKAI2b^F158 recapitulated the response of LjKAI2a to GR24^ent-5DS
LjKAI2b [2]
  differential scanning fluorimetry; intrinsic tryptophan fluorescence: LjKAI2b^L161,S191,F158 gained a strong response to GR24^ent-5DS
